Reference: US11833207B2, “Adipocyte-targeting DNA nanodrug and preparation and uses thereof” (HUNAN UNIVERSITY, priority 2020, dated 2023)

Tests used:
[1] = test system: 3T3-L1 preadipocytes; format: cell-based; conditions: mouse, 24 h
Description: 3T3-L1 preadipocytes were seeded in a 96-well plate at 10^4/well. After culturing for 24 h, the preadipocytes were added with TA, TDM or TADN for another 24 h culture. The culture medium was removed, and the cells were washed twice with PBS, followed by the addition of 100 μL of fresh culture medium and 10 μL of CCK-8 for the CCK-8 assay according to the manufacturer's protocol. The UV absorbance of each well at 450 nm was recorded using a Synergy 2 multifunctional microplate reader (Bio-Tek, Winooski, Vt.).

[2] = target: BSA (Bos taurus, UniProt P02769); test: Nonspecific protein (BSA) absorption by BSA fluorescence
[3] = EPR measurement of O2·− scavenging (DEPMPO trapper)
Description: Electron paramagnetic resonance (EPR) measurements were performed to evaluate the O2·^−- and ·OH-scavenging abilities of DNA hybrid nanostructures TADN. DEPMPO was used as the trapper. O2·^− was generated by dissolving KO2 in DMSO/crown ether (0.2 M). ·OH was produced by the Fenton-type reaction using H2O2 and CuSO4.

BSA, sequence (P02769 25-607): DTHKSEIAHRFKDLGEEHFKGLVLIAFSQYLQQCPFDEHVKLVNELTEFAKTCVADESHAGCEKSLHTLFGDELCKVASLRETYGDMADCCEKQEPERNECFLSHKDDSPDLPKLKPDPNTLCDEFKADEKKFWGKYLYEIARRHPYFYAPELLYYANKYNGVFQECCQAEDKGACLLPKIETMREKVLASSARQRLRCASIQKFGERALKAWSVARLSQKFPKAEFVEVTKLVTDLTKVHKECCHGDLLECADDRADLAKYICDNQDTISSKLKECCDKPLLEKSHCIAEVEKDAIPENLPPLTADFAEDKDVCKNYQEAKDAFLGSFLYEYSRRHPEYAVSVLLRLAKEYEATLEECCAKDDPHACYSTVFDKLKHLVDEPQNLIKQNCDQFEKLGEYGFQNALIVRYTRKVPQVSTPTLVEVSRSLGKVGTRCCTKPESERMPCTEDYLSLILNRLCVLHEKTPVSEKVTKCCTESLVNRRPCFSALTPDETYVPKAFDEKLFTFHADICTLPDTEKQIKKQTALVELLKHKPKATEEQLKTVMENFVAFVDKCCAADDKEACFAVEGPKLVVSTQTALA

protein adsorption [2]: tended to absorb proteins
O2·−-scavenging stability ([3]; after 24 h): almost disappeared
SMILES: O=C(OC[C@H]1O[C@@H](OC(=O)c2cc(O)c(O)c(OC(=O)c3cc(O)c(O)c(O)c3)c2)[C@H](OC(=O)c2cc(O)c(O)c(OC(=O)c3cc(O)c(O)c(O)c3)c2)[C@@H](OC(=O)c2cc(O)c(O)c(OC(=O)c3cc(O)c(O)c(O)c3)c2)[C@@H]1OC(=O)c1cc(O)c(O)c(OC(=O)c2cc(O)c(O)c(O)c2)c1)c1cc(O)c(O)c(OC(=O)c2cc(O)c(O)c(O)c2)c1 [TA, tannic acid]
concentration above which cytotoxicity increases [1]: above 25 μM
O2·−-scavenging activity ([3]; EPR): comparable scavenging activity to TADN
